For 42 compounds, activity results are on record in article PMC12518639, “Apomorphine is a novel necroptosis inhibitor targeting mixed lineage kinase domain-like protein oligomerization” (Cell Death Discovery, 2025).

SMILES strings stand for the structures. Counter-ions that a name gives are not always drawn. Where a SMILES comes first, the peptide text is derived from it. The star is where a group is joined. Cbz = O=C(OCc1ccccc1)*

In one test the test system is THP-1-HMGB1-Lucia cells. Nature of the test: TBZ-induced necroptosis screening by HMGB1-luciferase release. It counts as cell-based, human. The conditions noted are these: 20 μM compound with TBZ, 8 h; TBZ alone = 100, DPBS = 0; read-out: % Inhibition (luciferase activity relative to TBZ-treated supernatant). The method, then:
To identify potential inhibitors of the necroptosis pathway targeting MLKL or the process of p-MLKL pore formation on the membrane, we screened a library of 2150 compounds, including FDA-approved drugs and those in phase 1–3 clinical trials, using THP-1-HMGB1-Lucia™ cells expressing the HMGB1-luciferase fusion protein. The cells were treated with a necroptosis-inducing mixture containing TNF-α, BV6, and Z-VAD-FMK (TBZ) in addition to the compound library (Fig. 1A). The supernatants were harvested to measure luciferase activities for necroptosis. The luciferase activities of cell supernatants treated with TBZ alone were considered as the maximum release (100%) of HMGB1-luciferase. NEC-1, a known RIP1 inhibitor used in both humans and mice, was used as a positive control. […] Next, we performed a propidium iodide (PI) uptake assay to exclude cytotoxic compounds using THP-1 cells. Then, we selected candidate molecules that were arbitrarily less than 30% of those treated with TBZ. […] Next, the inhibition levels of p-MLKL were tested to select MLKL-targeting molecules (Figs. 1C and S1A). Compounds that reduced p-MLKL levels to less than 30% of TBZ-treated controls were considered as potential inhibitors of MLKL phosphorylation. Conversely, compounds that maintained p-MLKL levels above 70% were selected because they are presumed to prevent the formation of pores in the plasma membrane by interfering with oligomerization.
A clinical chemical library containing 2150 items (Korea Chemical Bank, South Korea), under phase 1–3 clinical trials, including FDA-approved drugs, was used to screen for necroptosis inhibitors. Each chemical was dissolved in DMSO and diluted to 20 μM in DPBS for treatment.
THP-1-HMGB1-Lucia^TM cells were pretreated with the pan-caspase inhibitor Z-VAD-FMK (50 μM, tlrl-vad, InvivoGen) and each chemical for 1 h, and followed by TNF-α (100 ng/mL, TNF0501, NKMAXBio, Seongnam, S. Korea) and Smac mimetic BV6 (10 μM, B1332-5, Biovision, Santa Clara, CA, USA), termed TBZ mixture, were added for necroptosis screening. The RIP1 inhibitor, NEC-1 (1846, Biovision), and MLKL inhibitor, NSA (432531-71-0, Sigma-Aldrich, St. Louis, MO, USA), were used as controls. The cell supernatant was harvested to measure HMGB1 levels using a luciferase assay kit (E1500, Promega, Madison, WI, USA) by a luminometer (Centro XS3 LB 960, Berthold Technologies, Bad Wildbad, Germany). The inhibition of necroptosis (%) was calculated as: (sample-treated data – medium-only data) × 100/(TBZ-treated data – medium-only data). APO [STK088477, (6aS)-6-methyl-5,6,6a,7-tetrahydro-4H-dibenzo[de,g]quinoline-10,11-diol, Vitas-M Laboratory, Hong Kong] was stored at −70 °C after aliquoting with DMSO. APO was used after dilution in DPBS. APO is susceptible to auto-oxidation in solution in the presence of light and air. DPBS containing 5 mM DTT was used for Re-APO. Ox-APO was prepared by incubating APO in DPBS at 25 °C for 24 h in the presence of light and air, followed by removal of any precipitate by filtration through 0.2 μm.
Consider `CN1C(=O)C(Cc2c[nH]c3ccccc23)NC1=S` (stereo not drawn) [Necrostatin-1], for which the activity came out at 1.2%.

On to `CC(C)C[C@@H](C=O)NC(=O)[C@H](CC(C)C)NC(=O)[C@H](CC(C)C)NC(=O)OCc1ccccc1` [S6, Z-Leu-Leu-Leu-al] (Cbz-Leu-Leu-Leu-aldehyde), for which the activity is 7.5%.

As for `O=C(Nc1ccc(S(=O)(=O)C(F)(F)F)cc1)C1=CCN(c2ncccc2C(F)(F)F)CC1` [S7, A 784168], the activity was 4.2%.

In the case of `COc1ccc(CNc2nc(N(CCO)CCO)nc3c2ncn3C(C)C)cc1` [S12, CVT-313], the activity is 4.7%.

Turning to `CC(=O)c1ccc(NC2=C(Cl)C(=O)c3ccccc3C2=O)cc1` [S21, NQ301], the activity is 4.1%.

Turning to `CC(C)c1onc(-c2c(Cl)cccc2Cl)c1COc1ccc(/C=C/c2cccc(C(=O)O)c2)c(Cl)c1` [S27, GW4064], the activity was found to be 9.2%.

On to `COc1ccc(C(c2c(O)c3ccccc3oc2=O)c2c(O)c3ccccc3oc2=O)cc1CSc1ccccn1` [S29, STK529529], for which the activity was 2.8%.

For `Cc1ccccc1N(C)C(=O)c1ccc([S+]([O-])c2nccs2)c([N+](=O)[O-])c1` (stereo not drawn) [S32, SB 268262], the activity turned out to be 0%.

Turning to `COc1ccc(C(c2c(O)c3ccccc3oc2=O)c2c(O)c3ccccc3oc2=O)cc1Cn1nc(C)c([N+](=O)[O-])c1C` [S33, STK528708], the activity is 0.1%.

Consider `COc1ccc(CNC(=O)Nc2ncc([N+](=O)[O-])s2)cc1` [S36, AR-A014418], for which the activity came out at 10.8%.

On to `O=c1[nH]c2ccc(Cl)cc2c(N[C@@H]2CN3CCC2CC3)c1-c1nc2ccccc2[nH]1` [S45, CHIR 124], for which the activity amounted to 6.5%.

`Nc1ncnc2c1c(I)cn2[C@@H]1O[C@H](CO)[C@@H](O)[C@H]1O` [S47, 5-Iodotubercidin]: the activity amounted to 4.9%.

`O=C1/C(=C/c2ccccc2F)CNC/C1=C\c1ccccc1F` [S49, EF-24]: the activity came out at 10.2%.

Turning to `O=S(=O)(c1ccccc1)N(CC(F)(F)F)c1ccc(C(O)(C(F)(F)F)C(F)(F)F)cc1` [S52, T0901317], the activity stood at 7.2%.

The test is the same for the next values; noted with them: Homo sapiens, 8 h, read-out: % Inhibition (luciferase activity relative to TBZ-treated supernatant).
On to `CC(C)CN(C[C@@H](O)[C@H](Cc1ccccc1)NC(=O)O[C@H]1CO[C@H]2OCC[C@H]21)S(=O)(=O)c1ccc(N)cc1` [S23, Prezista], for which the activity at 20 µM came out at 11.2%.

On to `C[C@@H]1O[C@@H](O[C@@H]2C=C3CC[C@@H]4[C@H](CC[C@]5(C)[C@@H](c6ccc(=O)oc6)CC[C@]45O)[C@@]3(C)CC2)[C@H](O)[C@H](O)[C@H]1O` [S48, Proscillaridin], for which the activity at 20 µM came out at 6.8%.

Still in this test, the particulars now being: Homo sapiens; 20 μM compound with TBZ, 8 h; TBZ alone = 100, DPBS = 0; read-out: % Inhibition (luciferase activity relative to TBZ-treated supernatant).
In the case of `O=c1ncn2nc(Sc3ccc(F)cc3F)ccc2c1-c1c(Cl)cccc1Cl` [S2, Neflamapimod], the activity at 20 µM came to 6.8%.

In the case of `CCc1c(Cl)c(O)c(Cl)c(O)c1C(=O)O[C@H]1[C@H](O)[C@H](OC)[C@H](OC/C2=C\C=C\C[C@H](O)/C(C)=C/[C@H](CC)[C@@H](O[C@@H]3OC(C)(C)[C@@H](OC(=O)C(C)C)[C@H](O)[C@@H]3O)/C(C)=C/C(C)=C/C[C@@H]([C@@H](C)O)OC2=O)O[C@@H]1C` [S5, Fidaxomicin], the activity at 20 µM is 5.9%.

Regarding `COC(=O)[C@]12CCC(C)(C)C[C@H]1[C@H]1C(=O)C=C3[C@@]4(C)C=C(C#N)C(=O)C(C)(C)[C@@H]4CC[C@@]3(C)[C@]1(C)CC2` [S8, Bardoxolone methyl], the activity at 20 µM stood at 0%.

With `CO[C@H]1C[C@@H]2CC[C@@H](C)[C@@](O)(O2)C(=O)C(=O)N2CCCC[C@H]2C(=O)O[C@H]([C@H](C)C[C@@H]2CC[C@@H](OC(=O)C(C)(CO)CO)[C@H](OC)C2)CC(=O)[C@H](C)/C=C(\C)[C@@H](O)[C@@H](OC)C(=O)[C@H](C)C[C@H](C)/C=C/C=C/C=C/1C` [S9, Temsirolimus], the activity at 20 µM was 19%.

Regarding `CC[C@H]1CN2CCc3cc(OC)c(OC)cc3[C@@H]2C[C@@H]1C[C@H]1NCCc2cc(OC)c(OC)cc21` [S13, Emetine dihydrochloride], the activity at 20 µM is 3.3%.

In the case of `COc1cc2nccc(Oc3ccc(NC(=O)C4(C(=O)Nc5ccc(F)cc5)CC4)cc3)c2cc1OC` [S14, Cabozantinib], the activity at 20 µM came out at 0.7%.

On to `Cc1ccc(F)c(NC(=O)Nc2ccc(-c3cccc4[nH]nc(N)c34)cc2)c1` [S20, Linifanib], for which the activity at 20 µM is 0%.

Take `CN1CCN(c2nc(C3=C(c4c[nH]c5ccccc45)C(=O)NC3=O)c3ccccc3n2)CC1` [S22, Sotrastaurin]: the activity at 20 µM turned out to be 4.7%.

For `CC(=O)[C@@]1(O)CC[C@H]2[C@@H]3CCC4=CC(=O)CCC4=C3[C@@H](c3ccc(N(C)C)cc3)C[C@@]21C` [S24, Ulipristal], the activity at 20 µM turned out to be 14%.

`C=C(CC)C(=O)c1ccc(OCC(=O)O)c(Cl)c1Cl` [S26, Ethacrynic acid]: the activity at 20 µM worked out at 3%.

Take `CCCS(=O)(=O)Nc1ccc(F)c(C(=O)c2c[nH]c3ncc(-c4ccc(Cl)cc4)cc23)c1F` [S30, Vemurafenib]: the activity at 20 µM turned out to be 6.4%.

`CC1(C)CNc2cc(NC(=O)c3cccnc3NCc3ccncc3)ccc21` [S37, Motesanib]: the activity at 20 µM amounted to 9.4%.

In the case of `O=C(NC1CCNCC1)c1[nH]ncc1NC(=O)c1c(Cl)cccc1Cl` [S39, AT7519], the activity at 20 µM was determined as 19.5%.

Turning to `O=C(O)Cc1cccc(OCCCN(Cc2cccc(C(F)(F)F)c2Cl)CC(c2ccccc2)c2ccccc2)c1` [S40, GW3965], the activity at 20 µM was found to be 11.6%.

In the case of `Cc1cc(SCc2sc(-c3ccc(C(F)(F)F)cc3)nc2C)ccc1OCC(=O)O` [S41, GW 501516], the activity at 20 µM is 9.1%.

As for `CNCc1ccc(-c2[nH]c3cc(F)cc4c3c2CCNC4=O)cc1` [S42, Rucaparib], the activity at 20 µM was 9.1%.

For `N#CC1(c2ccc(NC(=O)c3cccnc3NCc3ccncc3)cc2)CCCC1` [S43, Apatinib], the activity at 20 µM was 3.4%.

In the case of `CC(C)[C@H](CO)Nc1nc(Nc2cccc(Cl)c2)c2ncn(C(C)C)c2n1` [S44, Purvalanol A], the activity at 20 µM turned out to be 3.8%.

Take `O=C(Nc1cccc2c(=O)cc(-c3nnn[nH]3)oc12)c1ccc(OCCCCc2ccccc2)cc1` [S50, Pranlukast]: the activity at 20 µM worked out at 10.9%.

Consider `Cc1ccc(-n2nc(C(C)(C)C)cc2NC(=O)Nc2ccc(OCCN3CCOCC3)c3ccccc23)cc1` [S51, Doramapimod], for which the activity at 20 µM came to 3.9%.

As to `C#C[C@]1(O)CC[C@H]2[C@@H]3CCc4cc(OC5CCCC5)ccc4[C@H]3CC[C@@]21C` [S54, Quinestrol], the activity at 20 µM is 8.2%.

Take `Nc1ccc2cc3ccc(N)cc3nc2c1` [S55, Proflavine hemisulfate]: the activity at 20 µM came out at 3.5%.

Take `CO[C@H]1C[C@@H]2CC[C@@H](C)[C@@](O)(O2)C(=O)C(=O)N2CCCC[C@H]2C(=O)O[C@H]([C@H](C)C[C@@H]2CC[C@@H](O)[C@H](OC)C2)CC(=O)[C@H](C)/C=C(\C)[C@@H](O)[C@@H](OC)C(=O)[C@H](C)C[C@H](C)/C=C/C=C/C=C/1C` [S56, Sirolimus]: the activity at 20 µM stood at 0.3%.

`COc1cccc2c1C(=O)c1c(O)c3c(c(O)c1C2=O)C[C@@](O)(C(=O)CO)C[C@@H]3O[C@H]1C[C@H](N)[C@H](O[C@@H]2CCCCO2)[C@H](C)O1` [S57, Pirarubicin]: the activity at 20 µM was found to be 6.4%.

As for `NC(CO)(CO)CO` [S59, Trometamol], the activity at 20 µM was determined as 11%.

`COC(=O)C1=C(C)NC(C)=C(C(=O)OCCN(C)Cc2ccccc2)C1c1cccc([N+](=O)[O-])c1` (stereo not drawn) [S60, Nicardipine hydrochloride]: the activity at 20 µM came out at 3.8%.
